From the NIST ThermoML archive (doi:10.1021/je020042y)
± gives the expanded uncertainty stated by the source.

Assay: molar heat capacity at saturation pressure
Settings: Liquid

ClCCCl [1,2-dichloroethane]
Settings	molar heat capacity [J/K/mol]
284.16 K	128.02 ± 0.99
286.66 K	128.21 ± 0.99
289.15 K	128.39 ± 0.99
291.66 K	128.58 ± 1
294.15 K	128.75 ± 1
296.65 K	128.94 ± 1
298.15 K	129.06 ± 1
299.16 K	129.11 ± 1
301.65 K	129.39 ± 1
304.16 K	129.47 ± 1
308.56 K	129.86 ± 1
309.15 K	129.86 ± 1
311.66 K	130.16 ± 1
314.15 K	130.4 ± 1
316.65 K	130.55 ± 1
319.16 K	130.88 ± 1
321.65 K	131.09 ± 1
324.16 K	131.2 ± 1
326.65 K	131.56 ± 1
329.15 K	131.87 ± 1
331.66 K	132.06 ± 1
334.15 K	132.24 ± 1
336.66 K	132.59 ± 1
339.16 K	132.82 ± 1
341.65 K	132.96 ± 1
344.16 K	133.32 ± 1
346.65 K	133.59 ± 1
349.15 K	133.83 ± 1
351.66 K	134.22 ± 1
353.14 K	134.46 ± 1

ClCCCCl [1,3-dichloropropane]
Settings	molar heat capacity [J/K/mol]
284.16 K	154.94 ± 1.2
286.66 K	155.4 ± 1.2
289.15 K	155.76 ± 1.2
291.66 K	156.11 ± 1.2
294.15 K	156.39 ± 1.2
296.65 K	156.76 ± 1.2
298.15 K	157.03 ± 1.2
299.16 K	157.2 ± 1.2
301.65 K	157.65 ± 1.2
304.16 K	157.89 ± 1.2
308.56 K	158.63 ± 1.2
309.15 K	158.67 ± 1.2
311.66 K	159.23 ± 1.2
314.15 K	159.54 ± 1.2
316.65 K	159.89 ± 1.2
319.16 K	160.47 ± 1.2
321.65 K	160.93 ± 1.2
324.16 K	161.01 ± 1.2
326.65 K	161.59 ± 1.2
329.15 K	162.11 ± 1.3
331.66 K	162.48 ± 1.3
334.15 K	162.96 ± 1.3
336.66 K	163.33 ± 1.3
339.16 K	163.82 ± 1.3
341.65 K	164.1 ± 1.3
344.16 K	164.44 ± 1.3
346.65 K	165.1 ± 1.3
349.15 K	165.38 ± 1.3
351.66 K	165.81 ± 1.3
353.14 K	166.22 ± 1.3

ClCCCCCl [1,4-dichlorobutane]
Settings	molar heat capacity [J/K/mol]
284.16 K	181.25 ± 1.4
286.66 K	181.71 ± 1.4
289.15 K	182.15 ± 1.4
291.66 K	182.62 ± 1.4
294.15 K	182.99 ± 1.4
296.65 K	183.49 ± 1.4
298.15 K	183.76 ± 1.4
299.16 K	183.89 ± 1.4
301.65 K	184.47 ± 1.4
304.16 K	184.8 ± 1.4
308.56 K	185.71 ± 1.4
309.15 K	185.83 ± 1.4
311.66 K	186.41 ± 1.4
314.15 K	186.88 ± 1.4
316.65 K	187.38 ± 1.4
319.16 K	187.89 ± 1.5
321.65 K	188.52 ± 1.5
324.16 K	188.85 ± 1.5
326.65 K	189.48 ± 1.5
329.15 K	190.01 ± 1.5
331.66 K	190.54 ± 1.5
334.15 K	190.99 ± 1.5
336.66 K	191.48 ± 1.5
339.16 K	192 ± 1.5
341.65 K	192.36 ± 1.5
344.16 K	193.05 ± 1.5
346.65 K	193.63 ± 1.5
349.15 K	194 ± 1.5
351.66 K	194.7 ± 1.5
353.14 K	195.12 ± 1.5

ClCCCCCCl [1,5-dichloropentane]
Settings	molar heat capacity [J/K/mol]
284.16 K	209.5 ± 1.6
286.66 K	210.04 ± 1.6
289.15 K	210.65 ± 1.6
291.66 K	211.2 ± 1.6
294.15 K	211.7 ± 1.6
296.65 K	212.19 ± 1.6
298.15 K	212.63 ± 1.6
299.16 K	212.96 ± 1.6
301.65 K	213.55 ± 1.6
304.16 K	214.12 ± 1.7
308.56 K	215.36 ± 1.7
309.15 K	215.26 ± 1.7
311.66 K	215.96 ± 1.7
314.15 K	216.61 ± 1.7
316.65 K	217.17 ± 1.7
319.16 K	217.92 ± 1.7
321.65 K	218.56 ± 1.7
324.16 K	219 ± 1.7
326.65 K	219.91 ± 1.7
329.15 K	220.61 ± 1.7
331.66 K	221.16 ± 1.7
334.15 K	221.76 ± 1.7
336.66 K	222.43 ± 1.7
339.16 K	223.1 ± 1.7
341.65 K	223.58 ± 1.7
344.16 K	224.7 ± 1.7
346.65 K	225.01 ± 1.7
349.15 K	225.75 ± 1.8
351.66 K	226.41 ± 1.8
353.14 K	227.13 ± 1.8

ClCCCCCCCl [1,6-dichlorohexane]
Settings	molar heat capacity [J/K/mol]
284.16 K	236.57 ± 1.8
286.66 K	237.13 ± 1.8
289.15 K	237.89 ± 1.8
291.66 K	238.51 ± 1.9
294.15 K	239.26 ± 1.9
296.65 K	239.89 ± 1.9
298.15 K	240.39 ± 1.9
299.16 K	240.68 ± 1.9
301.65 K	241.35 ± 1.9
304.16 K	242 ± 1.9
308.56 K	243 ± 1.9
309.15 K	243.48 ± 1.9
311.66 K	244.27 ± 1.9
314.15 K	245.06 ± 1.9
316.65 K	245.79 ± 1.9
319.16 K	246.57 ± 1.9
321.65 K	247.24 ± 1.9
324.16 K	247.78 ± 1.9
326.65 K	248.95 ± 1.9
329.15 K	249.58 ± 1.9
331.66 K	250.36 ± 1.9
334.15 K	251.24 ± 1.9
336.66 K	252 ± 1.9
339.16 K	252.72 ± 2
341.65 K	253.7 ± 2
344.16 K	254.49 ± 2
346.65 K	255.12 ± 2
349.15 K	255.75 ± 2
351.66 K	257 ± 2
353.14 K	257.47 ± 2

CCCCO [butan-1-ol]
Settings	molar heat capacity [J/K/mol]
303.15 K	181.16 ± 1.4
313.15 K	188.39 ± 1.5
323.15 K	196.66 ± 1.5
333.15 K	205.33 ± 1.6
343.15 K	214.22 ± 1.7

Cc1ccccc1 [toluene]
Settings	molar heat capacity [J/K/mol]
283.15 K	152.85 ± 1.2
293.15 K	155.56 ± 1.2
303.15 K	158.38 ± 1.2
313.15 K	161.47 ± 1.2
323.15 K	164.51 ± 1.3
333.15 K	167.63 ± 1.3
343.15 K	170.85 ± 1.3

O [water]
Settings	molar heat capacity [J/K/mol]
283.15 K	75.47 ± 0.58
293.15 K	75.29 ± 0.58
303.15 K	75.29 ± 0.58
313.15 K	75.34 ± 0.58
323.15 K	75.32 ± 0.58
333.15 K	75.33 ± 0.58
343.15 K	75.38 ± 0.58
